Structures are written as SMILES.

The assay relates to HCT116 colon carcinoma cells. Kind of assay: HCT116 colon carcinoma cell growth inhibition (WST-1, 72 hr). It is filed as cell-based, human. The note with it: Homo sapiens, HCT-116, 72 hr exposure. The method, then:
HCT116 Colon Carcinoma Cell Growth Inhibition
HCT116 colon carcinoma cells were grown monolayer culture in RPMI 1640 medium supplemented with 10% fetal bovine serum and 1% penicillin-streptomycin (GibcoBRL, Grand Island, N.Y.). HCT116 cells in exponential growth phase were exposed to various concentrations of the test compounds at 37° C. for 72 hr in 5% carbon dioxide/air. After exposure to the agent, the cells were washed with 0.9% phosphate buffered saline. Growth inhibition was determined using WST-1 cell proliferation reagent as described above. The results are expressed as the growth fraction of treated cells compared with control cultures. Representative compounds of the present invention were tested for efficacy against the human colon HCT116 tumor cells.
The compound `O=C(NS(=O)(=O)c1ccc(F)c(F)c1)c1ccc(C(F)(F)F)cc1C(F)(F)F` [Example 53, N-[2,4-bis-trifluoromethylbenzoyl]-3,4-difluorophenyl-sulfonamide] showed an IC50 of 11.2 µM.

`Cc1cccc(S(=O)(=O)NC(=O)c2ccc(Cl)cc2C)c1` [Example 55, N-[2-methyl-4-chlorobenzoyl]-3-methylphenylsulfonamide] returned an IC50 of 9.5 µM.

Compound `Cc1cc(Cl)ccc1C(=O)NS(=O)(=O)c1ccc(I)cc1` [Example 56, N-[2-methyl-4-chlorobenzoyl]-4-iodophenylsulfonamide] gave an IC50 of 16.8 µM.

Compound `Cc1cc(Cl)ccc1C(=O)NS(=O)(=O)c1ccc(F)c(F)c1` [Example 57, N-[2-methyl-4-chlorobenzoyl]-3,4-difluorophenyl-sulfonamide] had an IC50 of 5 µM.

`Cc1ccc(C(=O)NS(=O)(=O)c2ccc(F)c(Cl)c2)c(Cl)c1` [Example 59, N-[2-chloro-4-methylbenzoyl]-3-chloro-4-fluorophenyl-sulfonamide] returned an IC50 of 15 µM.

For `Cc1cc(Cl)ccc1C(=O)NS(=O)(=O)c1ccccc1` [Example 60, N-[2-methyl-4-chlorobenzoyl]-phenylsulfonamide], the IC50 came to 6.6 µM.

Compound `CCSc1ccc(S(=O)(=O)NC(=O)c2ccc(Br)cc2C)cc1` [Example 61, N-[2-methyl-4-bromobenzoyl]-4-ethylthiophenyl-sulfonamide] displayed an IC50 of 14.2 µM.

Take `CCSc1ccc(S(=O)(=O)NC(=O)c2ccc(Cl)cc2Cl)cc1` [Example 62, N-[2,4-dichlorobenzoyl]-4-ethylthiophenyl-sulfonamide]: the IC50 is 19.3 µM. This IC50 and that of the compound before are within 1.5-fold of each other.

Consider `CC(C)c1ccc(S(=O)(=O)NC(=O)c2ccc(C(F)(F)F)cc2C(F)(F)F)cc1` [Example 63, N-[2,4-bis-trifluoromethylbenzoyl]-4-isopropylphenyl-sulfonamide], for which the IC50 turned out to be 24.7 µM. This IC50 and that of the compound before are within 1.5-fold of each other.

For `CC(C)c1ccc(S(=O)(=O)NC(=O)c2ccc(Br)cc2Cl)cc1` [Example 64, N-[2-chloro-4-bromobenzoyl]-4-isopropylphenyl-sulfonamide], half-maximal inhibition (IC50) was put at 18.2 µM.

Compound `CCc1ccc(S(=O)(=O)NC(=O)c2ccc(Cl)cc2C)cc1` [Example 70, N-[2-methyl-4-chlorobenzoyl]-4-ethylphenylsulfonamide] returned an IC50 of 16.9 µM.

On to `CC(C)c1ccc(S(=O)(=O)NC(=O)c2ccc(Cl)cc2Br)cc1` [Example 73, N-[2-bromo-4-chlorobenzoyl]-4-isopropylphenyl-sulfonamide], for which the IC50 worked out at 8.3 µM.

As for `Cc1ccc(S(=O)(=O)NC(=O)c2ccc(C)cc2C(F)(F)F)cc1` [Example 79, N-[2-trifluoromethyl-4-methylbenzoyl]-4-methylphenyl-sulfonamide], the IC50 was 5.2 µM.

`COc1cccc(S(=O)(=O)NC(=O)c2ccc(Cl)cc2Cl)c1` [Example 80, N-[2,4-dichlorobenzoyl]-3-methoxyphenyl-sulfonamide] had an IC50 of 12.3 µM.

For the compound `O=C(NS(=O)(=O)c1ccc(C(F)(F)F)cc1)c1ccc(Cl)cc1Cl` [Example 81, N-[2,4-dichlorobenzoyl]-4-trifluoromethyl-phenylsulfonamide], the IC50 came to 11.3 µM.

Take `O=C(NS(=O)(=O)c1ccc(O)cc1)c1ccc(Cl)cc1Cl` [Example 82, N-[2,4-dichlorobenzoyl]-4-hydroxyphenyl-sulfonamide]: half-maximal inhibition (IC50) was put at 12.4 µM. This IC50 and that of the compound before are within 1.5-fold of each other.

The compound `Cc1ccc(S(=O)(=O)NC(=O)c2ccc(Cl)cc2Cl)cc1` [Example 86, N-[2,4-dichlorobenzoyl]-4-methylphenylsulfonamide] displayed an IC50 of 1.6 µM.

The compound `CSc1ccc(S(=O)(=O)NC(=O)c2ccc(Cl)cc2Cl)cc1` [Example 87, N-[2,4-dichlorobenzoyl]-4-methylthiophenylsulfonamide] registered an IC50 of 5.5 µM.

Turning to `CC(C)(C)c1ccc(S(=O)(=O)NC(=O)c2ccc(Cl)cc2Cl)cc1` [Example 88, N-[2,4-dichlorobenzoyl]-4-tert-butylphenylsulfonamide], the IC50 was 4.8 µM. This IC50 and that of the compound before are within 1.5-fold of each other.

`Cc1ccc(S(=O)(=O)NC(=O)c2ccc(Cl)cc2Cl)cc1Cl` [Example 89, N-[2,4-dichlorobenzoyl]-3-chloro-4-methylphenylsulfonamide] returned an IC50 of 4.8 µM.

Take `Cc1cc(Cl)ccc1C(=O)NS(=O)(=O)c1cccc(Br)c1` [Example 90, N-[2-methyl-4-chlorobenzoyl]-3-bromophenylsulfonamide]: the IC50 turned out to be 4.5 µM.

The compound `O=C(NS(=O)(=O)c1ccc(Cl)c(Cl)c1)c1ccc(Cl)cc1Cl` [Example 92, N-[2,4-dichlorobenzoyl]-3,4-dichlorophenylsulfonamide] yielded an IC50 of 17.4 µM. This IC50 is about 3.9-fold higher than that of the compound before.

With `Cc1cc(Cl)ccc1C(=O)NS(=O)(=O)c1ccc(Cl)cc1` [Example 93, N-[2-methyl-4-chlorobenzoyl]-4-chlorophenylsulfonamide], the IC50 came out at 18.1 µM.

Consider `O=C(NS(=O)(=O)c1ccc(Br)cc1)c1ccc(Cl)cc1Cl` [Example 94, N-[2,4-dichlorobenzoyl]-4-bromophenylsulfonamide], for which half-maximal inhibition (IC50) required 3.6 µM.

In turn, `CS(=O)(=O)Oc1ccc(S(=O)(=O)NC(=O)c2ccc(Cl)cc2Cl)cc1` [Example 95, N-[2,4-dichlorobenzoyl]-4-methylsulfonyloxyphenyl-sulfonamide] came in with an IC50 of 4.3 µM.

Compound `O=C(NS(=O)(=O)c1ccc(OC(F)(F)F)cc1)c1ccc(Cl)cc1Cl` [Example 96, N-[2,4-dichlorobenzoyl]-4-trifluoromethoxyphenyl-sulfonamide] gave an IC50 of 34.7 µM. Compared with the last compound, the IC50 is about 8.1-fold higher.

The compound `COc1c(C)cc(S(=O)(=O)NC(=O)c2ccc(Cl)cc2Cl)cc1C` [Example 97, N-[2,4-dichlorobenzoyl]-4-methoxy-3,5-dimethylphenylsulfonamide] displayed an IC50 of 7 µM.

`CN(C)c1ccc(S(=O)(=O)NC(=O)c2ccc(Cl)cc2Cl)cc1` [Example 98, N-[2,4-dichlorobenzoyl]-4-dimethylaminophenyl-sulfonamide] displayed an IC50 of 13 µM. This IC50 is about 1.9-fold higher than that of the compound before.

With `O=C(NS(=O)(=O)c1ccc(Cl)cc1)c1ccc(C(F)(F)F)cc1C(F)(F)F` [Example 99, N-[2,4-bis-trifluoromethylbenzoyl]-4-chlorophenylsulfonamide], the IC50 was 33.5 µM.

`Cc1cc(Br)ccc1C(=O)NS(=O)(=O)c1ccc(Br)cc1` [Example 100, N-[2-methyl-4-bromobenzoyl]-4-bromophenylsulfonamide] came in with an IC50 of 9.2 µM.

In turn, `O=C(NS(=O)(=O)c1ccc(F)cc1)c1ccc([N+](=O)[O-])cc1Cl` [Example 101, N-[2-chloro-4-nitrobenzoyl]-4-fluoro-phenylsulfonamide] showed an IC50 of 12.4 µM.

For `Cc1cccc(C(=O)NS(=O)(=O)c2ccc(Cl)cc2)c1Cl` [Example 102, N-[2-chloro-3-methylbenzoyl]-4-chlorophenylsulfonamide], inhibition was half-maximal at 6.3 µM (IC50). Compared with the last compound, the IC50 is about 2-fold lower.

`O=C(NS(=O)(=O)c1ccc([N+](=O)[O-])cc1)c1ccc(Cl)cc1Cl` [Example 103, N-[2,4-dichlorobenzoyl]-4-nitrophenylsulfonamide] displayed an IC50 of 11.9 µM.

Regarding `Cc1cc(Cl)ccc1C(=O)NS(=O)(=O)c1ccc(Cl)c(Cl)c1` [Example 104, N-[2-methyl-4-chlorobenzoyl]-3,4-dichlorophenylsulfonamide], the IC50 is 22.2 µM.

In the case of `Cc1cc(Cl)ccc1C(=O)NS(=O)(=O)c1ccc(C(C)(C)C)cc1` [Example 105, N-[2-methyl-4-chlorobenzoyl]-4-tert-butylphenylsulfonamide], the IC50 is 14.8 µM.

Source of the values: patent US7183320B2, “Benzoylsulfonamides and sulfonylbenzamidines for use as antitumour agents” (Eli Lilly and Company, priority 2002, dated 2007).
